Data taken from a melting point compilation (Tetko et al.).

Compound	melting point [°C]
CC1CCC2(NC1)OC1CC3C4CCC5CC(O)CCC5(C)C4CCC3(C)C1C2C (stereo not given)	210
O[Si](O)(c1ccccc1)c1ccccc1	202
O=C(c1ccccc1)C(Br)c1ccccc1 (stereo not given)	53 to 58
CCOC(=O)c1c(NC(=S)Nc2ccc(F)cc2)sc2c1CCCC2	209 to 211
N#CCCOCCC#N	-26.3
Fc1ccc(Br)cc1Br	69
O=C(C1=NOC2C(=O)N(c3cccc([N+](=O)[O-])c3)C(=O)C12)c1ccccc1 (stereo not given)	173
CCCCCCCCCCCCCCCC(=O)OCCCC	16.9
COc1ccc(C(N)=O)c(Cl)c1OC	165 to 168
CCCCC(O)(Cn1cncn1)c1ccc(Cl)cc1Cl (stereo not given)	111
OCc1csc(-c2cccc(Cl)c2)n1	93 to 95
O=C(O)C(F)(F)C(F)(F)C(F)(F)C(F)(F)C(F)(F)C(F)(F)C(F)(F)C(F)(F)C(F)(F)C(F)(F)C(F)(F)F	112 to 114
Nc1n[nH]cc1Br	133 to 135
CC(C)NCC(O)c1ccc2ccccc2c1 (stereo not given)	108
O=C(O)c1cc2nccnc2s1	220
CCCCC(C)O (stereo not given)	-23
O=C1C=CC2(CCC23C=CC(=O)O3)O1 (stereo not given)	158
CC(C)CCOC(=O)C(=O)OCCC(C)C	-9
N#C/C(=N/Nc1ccc(F)cc1)c1nc(-c2ccc(Cl)cc2)cs1	225
COc1cc(C(=O)c2ccc(Cl)cc2)cc(OC)c1OCCN1CCOCC1	91.5
Cc1cccc(N/N=C(\C#N)c2nc(-c3ccc(Cl)cc3)cs2)c1C	196
O=C1c2ccccc2C(=O)N1SC(Cl)(Cl)Cl	178
CN(C)c1ccc(CNC(=O)c2cc([N+](=O)[O-])cc([N+](=O)[O-])c2)cc1	145
COCC(=NOCC(=O)OC)c1cc(Oc2ccc(C(F)(F)F)cc2Cl)ccc1[N+](=O)[O-]	58
C1COCCOCCOCCOCCOCCO1	39
C=CCNC(=S)NN	93 to 96

Compound	melting point [°C]
C#CC(C)O (stereo not given)	-3
C=C(C)CCCCCCCCCCC	-22
CCCCCCCCCCCCCCCCCC(=O)OCCOC(=O)CCCCCCCCCCCCCCCCC	79
C=COCCCCCCCCCCCCCCCC	16
COC(=O)c1cc(O)c(O)c(O)c1	262
Cc1onc(-c2c(F)cccc2Cl)c1C(N)=S	176
O=[N+]([O-])c1ccc(S(=O)(=O)OCc2cccc(OS(=O)(=O)c3ccc([N+](=O)[O-])cc3)c2)cc1	199 to 202
CCc1ccc(CCOc2ccc(CC3SC(=O)NC3=O)cc2)nc1 (stereo not given)	184
OCc1cccnc1N1CCCC1	74 to 76
CC1=CCCC1	-126
O=C(Nc1ccc([N+](=O)[O-])cc1Cl)c1cc(Cl)ccc1O	230
O=NN1CCCC1c1cccnc1 (stereo not given)	47
COc1ccc(C=NNC(=O)c2ccncc2)cc1OC	189
COc1ccc(C(=O)C2=NN(c3ccccc3)C3C(=O)N(c4cc(Cl)ccc4Cl)C(=O)C23)cc1 (stereo not given)	240
c1ccc(N=Nc2ccc(/N=N/c3ccc(N=Nc4ccccc4)cc3)cc2)cc1	233
Clc1cc(Cl)c2ccccc2c1	62.3
Cc1ccc2cc(N)ccc2n1	190
Cc1ccc(C(=O)CC#N)cc1	102
CCCCCCCCCCCCSC(C(=O)Nc1cc(C)c(O)c(C)c1C)c1ccccc1 (stereo not given)	130
c1ccc(C2CCc3ccccc3O2)cc1 (stereo not given)	46.3
C=C1CCC(=O)O1	18
N#CCC=CCC#N	76
c1cocn1	-86
COC(=O)c1ccccc1-n1c(=S)[nH]c2ccccc2c1=O	255 to 257
Cc1cc(Br)cc(Br)c1N	44 to 49
CCCCCCCCCCCCCCCCCCC1CCCCC1	41.6

Compound	melting point [°C]
N#CC1CCCCC1	11
Cc1ccc(-n2c(C=Cc3ccc([N+](=O)[O-])cc3)nc3cc([N+](=O)[O-])ccc32)cc1	267
O=Cc1ccc(N2CCCC2)nc1	89 to 90
CSc1nc(N)ns1	156 to 158
Cc1nc(N)nc(O)n1	300
CC(=O)C(c1ccccc1)c1ccc(C(F)(F)F)cc1[N+](=O)[O-] (stereo not given)	91
CC(=O)NCCc1ccccc1NC(C)=O	144
c1ccc2[nH]ncc2c1	148
CCN1C(=O)CC(=O)N(CC)C1=S	106 to 109
O=C(O)c1ccccc1Nc1cccc(C(F)(F)F)c1	134
CC1(C)C(Br)=C(Br)C(=O)C1Br (stereo not given)	87
Cn1ccsc1=NC(=O)c1ccccc1	114
Brc1cc(Br)c(Oc2ccccc2)c(Br)c1	85 to 86
CC(c1ccccc1)C(NC(=O)OC(C)(C)C)C(=O)O (stereo not given)	100 to 105
Cc1cc2cc3c(C)cc(=O)oc3c(C)c2o1	230 to 234
CC(C)(C)OC(=O)C1CC(=O)CN1C(=O)OC(C)(C)C (stereo not given)	66
O=[N+]([O-])c1c(Cl)ccc(O)c1Cl	87
Cc1cc(Cl)ccc1[N+](=O)[O-]	23 to 25
CC(=O)C(c1ccccc1)c1ccccc1	61
NCCSc1cc(C(F)(F)F)nc2ccccc12	97 to 99
Cc1ccc(-n2cccc2C=O)cc1	48 to 50
O=C(O)c1cccc2cccc(Br)c12	169 to 171
CCOC(=O)c1coc(Cl)n1	97.5
Nc1nc(O)cc(O)n1	300
CCCCCCCCCCCCC(Oc1ccc([N+](=O)[O-])cc1)C(=O)NN (stereo not given)	127
O=C(Nc1ccccc1)C(Cl)=NNc1ccccc1	159 to 161

Compound	melting point [°C]
COc1ccccc1-c1ccc(C=CC(=O)c2ccccc2)o1	98 to 99
CC(=O)NC1CCCCC(NC(C)=O)CCCC1 (stereo not given)	296 to 297
COc1ccc(-c2cc3nc(C)cc(C(F)(F)F)n3n2)cc1	167
COC1CCC(OC)O1 (stereo not given)	-45
COc1ccc2c(c1)CC1(CCC(O)(c3ccc(C(C)(C)C)cc3)CC1)C2=O (stereo not given)	183 to 184
O=C(Cl)c1ccc(-c2ncccn2)cc1	172 to 175
COc1cc(N)ccc1Cl	80
CC(=O)OC1CCCc2c(C)ccc(C)c21 (stereo not given)	52
O=Cc1ccc2c(c1)OCCO2	52 to 53
CCOC(=O)c1cncc(Br)c1	41
CC(=O)OC1(C)Cc2c(C)c(C)c(C)c(C)c21 (stereo not given)	70
O=C(O)c1c(O)cccc1O	160 to 165
CC(C)C(Br)C(=O)NC(N)=O (stereo not given)	154
Nc1ccc(Br)cc1C(=O)O	220
CC(C)(C)OC(=O)NC1(C(=O)O)CCc2ccccc21 (racemic)	156 to 159
Cc1cc(-c2ccccc2)n(N)c(=O)c1C#N	189
COC(=O)c1ccccc1C#N	50
O=C(O)CCOc1ccc(Cl)cc1	136 to 137
O=c1oc2cc(O)ccc2s1	160
CC(C)(C)c1ncc(C(=O)Nc2cc(C(F)(F)F)cc(C(F)(F)F)c2)nc1Cl	99
COC(=O)c1ccc(-c2ccccc2)nc1	110
O=C1c2cccc3cccc(c23)C(=O)N1O	245
CC(=O)OC1Cc2ccccc21 (stereo not given)	31
Fc1ccc(CN2CCNCC2)cc1	64 to 65
CCCC(=NOCC)C1=C(O)CC(C2CCCSC2)CC1=O (stereo not given)	37.1
Nc1cccc([N+](=O)[O-])c1[N+](=O)[O-]	122

Compound	melting point [°C]
O=C(O)C=Cc1cc(F)cc(F)c1	205
O=Cc1cccc(C(F)(F)F)c1Cl	44
O=C(c1ccc(C(=O)C(Cl)(Cl)Cl)cc1)C(Cl)Cl	136
O=C(C1=NOC2C(=O)N(c3cccc4ccccc34)C(=O)C12)c1cccs1 (stereo not given)	80
COc1cccc(-c2ccc(C(=O)O)o2)c1	169 to 170
Cc1ccc2[nH]c(C)c(C)c2c1	122
O=C(O)Cc1c[nH]c2ccc(Br)cc12	141 to 148
OCCN1CCN(c2ncc(Cl)cc2C(F)(F)F)CC1	58 to 59
S=c1oc2ccccc2n1CN1CCCCC1	255
CCCCOC(=O)c1ccccc1O	-5.9
CC1=NN(c2ccccc2)C(=O)/C1=N\Nc1cccc(C(F)(F)F)c1	171
c1cc2cc3ccc4c(c3nc2c2c1NCOC2)COCN4	235
COc1ccc(OC)c(C=C[N+](=O)[O-])c1	114 to 119
c1ccc(N2CCNCC2)cc1	18.8
CNP(=O)(OC)Oc1ccc(C(C)(C)C)cc1Cl (stereo not given)	60
C=C1C2CC(C(=C(c3ccccc3)c3ccccc3)C2c2ccccc2)C1(C)C (stereo not given)	115
Cc1cncc(C(=O)O)c1	212
COc1ccc(-c2occ(C(=O)c3ccccc3)c2S(=O)(=O)c2ccccc2)cc1	110
Cc1cccc(NC(=O)C(C(F)(F)F)(C(F)(F)F)C(F)(F)F)c1	188
CCOC(=O)CCCOc1ccc(Cl)cc1C	-1
CC=CC(=O)c1ccccc1	20.5
O=C(Cl)c1cccc(C(Cl)Cl)c1	57 to 63
O=C=Nc1ccc(Cl)cc1Cl	59 to 60
CC(=O)Oc1cc(C)ccc1C1(C)CC(C)(C)c2ccc(C)cc2O1 (stereo not given)	102
CCOC(=O)N=C(c1ccc[nH]1)N1CCOCC1	147 to 149
c1cc(SSc2ccncc2)ccn1	76
